Measured values reported in US8802678B2, “Carbonylated (aza) cyclohexanes as dopamine D3 receptor ligands” (Bioprojet, priority 2006, dated 2014).

Row | melting point [°C] | Compound
1 | 185 | NC(=O)CC(=O)N[C@H]1CC[C@H](CCN2CCN(c3cc(C(F)(F)F)ccc3F)CC2)CC1 [Example 671, N-(4-{2-[4-(2-Fluoro-5-trifluoromethylphenyl)piperazin-1-yl]ethyl}cyclohexyl)-malonamide]
2 | 205 | CS(=O)(=O)c1cccc(N2CCN(CC[C@H]3CC[C@H](NC(=O)CCC(F)(F)F)CC3)CC2)c1 [Example 469, 4,4,4-Trifluoro-N-(4-{2-[4-(3-methanesulfonylphenyl)piperazin-1-yl]ethyl}cyclohexyl)butanamide]
3 | 320 | CC(=O)CN1CCC(CCN2CCN(c3cccc4c3CCCC4)CC2)CC1.Cl.Cl
4 | 90 | CCOCC(=O)N[C@H]1CC[C@H](CCN2CCN(c3cccc(C#N)c3)CC2)CC1 [Example 78, N-(4-{2-[4-(3-Cyanophenyl)-piperazin-1-yl]ethyl}cyclohexyl)-2-ethoxyacetamide trans/cis 75/25]
5 | 197 | Cc1ccc(N2CCN(CC[C@H]3CC[C@H](NC(=O)CC#N)CC3)CC2)c(F)c1 [Example 484, 2-Cyano-N-(4-{2-[4-(2-fluoro-4-methylphenyl)piperazin-1-yl]ethyl}cyclohexyl)acetamide]
6 | 201 | COCCCC(=O)N[C@H]1CC[C@H](CCN2CC=C(c3ccc(F)cc3)CC2)CC1
7 | 265 | COc1cccc(N2CCN(CCC3CCN(CC(C)=O)CC3)CC2)c1.Cl.Cl
8 | 159 | Cc1ccc(F)cc1N1CCN(CC[C@H]2CC[C@H](NC(=O)CC#N)CC2)CC1 [Example 196, 2-Cyano-N-(4-{2-[4-(5-fluoro-2-methylphenyl)piperazin-1-yl]ethyl}cyclohexyl)acetamide]
9 | 118 | CCOC(=O)Nc1cccc(N2CCN(CCC3CCN(CC(C)=O)CC3)CC2)c1 [Example 777, [3-(4-{2-[1-(2-oxopropyl)piperidin-4-yl]ethyl}piperazin-1-yl)phenyl]carbamic acid ethyl ester]
10 | 185 | N#CCC(=O)N[C@H]1CC[C@H](CCN2CCN(c3ccc(F)c(C#N)c3)CC2)CC1 [Example 660, 2-Cyano-N-(4-{2-[4-(3-cyano-4-fluorophenyl)piperazin-1-yl]ethyl}cyclohexyl)acetamide]
11 | 164 | N#CCCC(=O)N[C@H]1CC[C@H](CCN2CCN(c3ccccc3F)CC2)CC1 [Example 266, 3-Cyano-N-(4-{2-[4-(2-fluorophenyl)piperazin-1-yl]ethyl}cyclohexyl)propanamide]
12 | 188 | COCCCC(=O)N[C@H]1CC[C@H](CCN2CCN(c3cccc(Cl)c3C)CC2)CC1 [Example 547, N-(4-{2-[4-(3-Chloro-2-methylphenyl)piperazin-1-yl]ethyl}cyclohexyl)-4-methoxybutanamide]
13 | 128 | CN(C)CCCC(=O)N[C@H]1CC[C@H](CCN2CCN(c3cccc(C(F)(F)F)c3)CC2)CC1 [Example 223, 4-Dimethylamino-N-(4-{2-[4-(3-trifluoromethylphenyl)piperazin-1-yl]ethyl}cyclohexyl)butanamide]
14 | 185 | CCc1cccc(N2CCN(CC[C@H]3CC[C@H](NC(=O)CS(C)(=O)=O)CC3)CC2)c1 [Example 425, N-(4-{2-[4-(3-Ethylphenyl)-piperazin-1-yl]ethyl}cyclohexyl)-2-methanesulfonylacetamide]
15 | 282 | CC(=O)CN1CCC(CCN2CC=C(c3cc(C(F)(F)F)ccc3F)CC2)CC1.Cl.Cl
16 | 270 | CC(=O)CN1CCC(CCN2CCN(c3cccc(C(F)(F)F)c3F)CC2)CC1.Cl.Cl
17 | 291 | CC(=O)CN1CCC(CCN2CCN(c3ccc4c(c3)CCC4)CC2)CC1.Cl.Cl

Row | melting point [°C] | Compound
18 | 101 | CCOCC(=O)N[C@H]1CC[C@H](CCN2CCN(c3ccccc3C)CC2)CC1 [Example 557]
19 | 189 | N#CCCCC(=O)N[C@H]1CC[C@H](CCN2CCN(c3cccc(Cl)c3C#N)CC2)CC1 [Example 393, N-(4-{2-[4-(3-Chloro-2-cyanophenyl)piperazin-1-yl]ethyl}cyclohexyl)-4-cyanobutanamide]
20 | 146 | Cc1ccc(F)cc1N1CCN(CC[C@H]2CC[C@H](NC(=O)CCC#N)CC2)CC1 [Example 278, 3-Cyano-N-(4-{2-[4-(5-fluoro-2-methylphenyl)piperazin-1-yl]ethyl}cyclohexyl)propanamide]
21 | 256 | CCCc1cccc(N2CCN(CCC3CCN(CC(C)=O)CC3)CC2)c1.Cl.Cl
22 | 171 to 173 | COc1ccc(OC)c(N2CCN(CC[C@H]3CC[C@H](NC(=O)CC#N)CC3)CC2)c1 [Example 221, 2-Cyano-N-(4-{2-[4-(2,5-dimethoxyphenyl)piperazin-1-yl]ethyl}cyclohexyl)acetamide]
23 | 261 | CC(=O)CN1CCC(CCN2CCN(c3cc(Cl)c(Cl)cc3Cl)CC2)CC1.Cl.Cl
24 | 172 | N#CCC(=O)N[C@H]1CC[C@H](CCN2CCN(c3cc(Cl)cc(C(F)(F)F)c3)CC2)CC1 [Example 528, N-(4-{2-[4-(3-Chloro-5-trifluoromethylphenyl)piperazin-1-yl]ethyl}cyclohexyl)-2-cyanoacetamide]
25 | 152 | N#CCC(=O)N[C@H]1CC[C@@H](CCN2CCN(c3cc(C(F)(F)F)ccc3F)CC2)CC1 [Example 586, 2-Cyano-N-(4-{2-[4-(2-fluoro-5-trifluoromethylphenyl)piperazin-1-yl]ethyl}cyclohexyl)acetamide]
26 | 203 to 204 | N#CCC(=O)N[C@H]1CC[C@H](CCN2CCN(c3cc(C(F)(F)F)ccc3Cl)CC2)CC1 [Example 189, N-(4-{2-[4-(2-Chloro-5-trifluoromethylphenyl)piperazin-1-yl]ethyl}cyclohexyl)-2-cyanoacetamide]
27 | 189 | Cc1ccc(N2CCN(CC[C@H]3CC[C@H](NC(=O)CCCC#N)CC3)CC2)cc1 [Example 467, 4-Cyano-N-{4-[2-(4-p-tolylpiperazin-1-yl)ethyl]cyclohexyl}butanamide]
28 | 310 | CC(=O)CN1CCC(CCN2CCN(c3cc(C(C)(C)C)nc(C(C)(C)C)n3)CC2)CC1.Cl.Cl
29 | 132 | CCOCC(=O)N[C@H]1CC[C@H](CCN2CCN(c3ccc(OC)cc3)CC2)CC1 [Example 572, 2-Ethoxy-N-(4-{2-[4-(4-methoxyphenyl)piperazin-1-yl]ethyl}cyclohexyl)acetamide]
30 | 185 | CCc1cccc(N2CCN(CC[C@H]3CC[C@H](NC(=O)C4CC=CC4)CC3)CC2)c1 [Example 378, Cyclopent-3-enecarboxylic acid (4-{2-[4-(3-ethylphenyl)piperazin-1-yl]ethyl}cyclohexyl) amide]
31 | 166 | N#CCCCC(=O)N[C@H]1CC[C@H](CCN2CCN(c3cc(C(F)(F)F)cc(C(F)(F)F)c3)CC2)CC1 [Example 184, N-(4-{2-[4-(3,5-Bistrifluoromethylphenyl)piperazin-1-yl]ethyl}cyclohexyl)-4-cyanobutanamide]
32 | 295 | CC(=O)CN1CCC(CCN2CCN(c3cccc4c3CCC4)CC2)CC1.Cl.Cl
33 | 166 | Cc1cccc(N2CCN(CC[C@H]3CC[C@H](NC(=O)CC#N)CC3)CC2)c1C [Example 219, 2-Cyano-N-(4-{2-[4-(2,3-dimethylphenyl)piperazin-1-yl]ethyl}cyclohexyl)acetamide]
